Experiment [1] has as its system SNB-19 cells. Kind of experiment: Growth-stimulated induction of c-fos and invasion-associated mRNA in quiescent cells plated into fresh growth media, Northern analysis. The note with it: for effect on expression of uPA, GnT-V and c-ets-1 mRNA induced by growth stimulation: 2 and 6 hr after plating into fresh growth media. In kind it is cell-based, human. How it is done:
(§1) Procedure for Northern Blot. Surgical specimens were immediately frozen in liquid nitrogen upon resection. Total RNA was isolated from clinical glioma specimens and cultured brain tumor cells using guanidium isothiocyanate followed by […] centrifugation. 10-20 μg of total RNA per tumor cell line per lane were electrophoresed in an agarose-formaldehyde gel and transferred to Duralon nylon membranes (Stratagene, La Jolla, Calif.). After UV cross-linking, the blots were hybridized with a ^32P-radiolabeled cDNA probe synthesized by using a random priming kit (Stratagene, La Jolla, Calif.) and ExpressHyb solution (Clontech, Palo Alto, Calif.). The blots were then exposed to X-OMAT film (Kodak, Rochester, N.Y.) and the films were developed appropriately.
Modulators of the MAPK pathway also modulated the growth-stimulated mRNA expression of c-Fos and invasion-related protein MRNA expression. Quiescent SNB-19 cells were plated in fresh growth media either in the presence of 80 μM PD98059, a MEK/MAPKK inhibitor, or the absence of inhibitor, as a control. Induction was measured by observing MRNA expression over time (FIG. 6).
Quiescent SNB-19 cells were growth induced by plating into fresh growth media for 2 and 6 hr. c-Fos expression was monitored by observing the mRNA levels of the downstream genes uPA, GNT-V, and c-ets-1 (see FIG. 8).

The test system of experiment [2] is SNB-19 cells. Kind of experiment: Induction of invasion-associated gene mRNA by phorbol ester, Northern analysis. The note with it: 150 nM PDBu, 24 hr incubation. In kind it is cell-based, human. The protocol:
as §1
The effects of a test compound, a phorbol ester (a Protein Kinase C (PKC) activator), on the coordinated expression of a panel of sequences was determined. SNB-19 cells were cultured in the presence of 150 nM phorbol 12, 13-dibutyrate (PDBu, Sigma Chemical Co.) for 24 hr. Expression of GnT-V, c-ets-1, uPA, MMP-1, and MMP-3 mRNA was then assayed by northern blot on total RNA from the cells. A panel of nucleic acid probes corresponding to GnT-V, c-ets-1, uPA, MMP-1, and MMP-3 were prepared as described above and utilized to detect expression of the corresponding mRNA in treated or untreated SNB-19 cells. […]

Experiment [3] has as its system c-Fos protein in SNB-19 cells. Kind of experiment: Growth-stimulated c-Fos protein induction, Western blot. The format is cell-based, human. Particulars: 50 μM U0126, 1 μM FTI, 50 μM PD98059; for c-Fos protein induction: 0.5-8 hr after plating. How it is done: Quiescent SNB-19 cells were plated into fresh growth media and incubated for 0.5, 1, 2, 3, 4, 6, and 8 hr in the presence of inhibitors of the MAPK pathway, and the cells were harvested for c-Fos protein analysis by Western blot. 20 μg of total protein per lane were used. c-Fos protein induction without inhibitors was shown as a control.
Procedure for Western Blot. To detect c-Ets-1 and c-Fos protein expression in brain tumor cell lines, 20 μg of protein cell lysates were loaded on a 8% SDS-polyacrylamide gel immediately after boiling each sample in the presence of 2% mercaptoethanol. After electrophoresis, proteins were transferred to a PVDF membrane and the membrane was blocked with 5% BSA in PBS. The membrane was then incubated with either a 1:10,000 dilution of monoclonal anti-human c-Ets-1 antibody (Clone 47, Transduction Laboratory, Ky.) or anti-human c-Fos antibody (Santa Cruz Biotechnology, Inc.) in Tris-buffered saline pH 7.4 (TBS) containing 2% BSA and 0.1% Tween 20 for 1 h at room temperature. The membrane was then washed with TBS containing 2% BSA and 0.1% Tween 20 for 10 min, followed by washing twice with 0.1% Tween 20 in TBS. Next, the membrane was incubated with a 1:10000 dilution of horseradish peroxidase-conjugated anti-mouse IgG (Amersham, UK) for 1 h at room temperature in 2% BSA in TBS containing 0.1% Tween 20. The membrane was then washed as described above, and developed with the ECL Chemiluminescence detection system (Amersham, UK) according to manufacturer's instructions.
(In general: In western blotting, separated proteins are transferred to a membrane and probed.)

For experiment [4], the system named is c-fos promoter/luciferase gene transfectant (clone 60) of SNB-19 glioma cells. Kind of experiment: Luciferase mRNA expression in stable c-fos promoter/luciferase gene transfectant, Northern analysis. Particulars: 1, 2, 3, 6, and 24 hr in the presence of inhibitor. In kind it is cell-based, human. The protocol:
A quiescent c-fos promoter/luciferase gene transfectant (clone 60) was plated into fresh growth media and incubated for 1, 2, 3, 6, and 24 hr in the presence of MEK/MAPKK inhibitors, and the cells were harvested for detection of luciferase mRNA expression by Northern analysis. 10 μg of total RNA per lane were used.
The 498 bp promoter region of the human c-Fos gene was amplified by genomic PCR using sense primer 5′-[…]-3′ (SEQ ID No. 7) and antisense primer 5′-[…]-3′ (SEQ ID No. 8), ligated into the pCR II vector (Invitrogen, San Diego, Calif.). […] Antisense orientation of the c-fos promoter/pCR II plasmid was digested with Hind III and Xho I restriction enzymes and the digested fragment was ligated into the Hind III and Xho I sites of the luciferase vector pGL3-basic (Promega, Madison, Wis.). The c-fos promoter/pGL3 plasmid DNA was digested with Sma I and Xba I and the digested fragment was ligated into the Nru I and Xba I sites of the pcDNA 3 vector (Invitrogen). This final construct contains the luciferase gene under control of the c-fos promoter instead of the control of the CMV promoter. The plasmid DNA was stably transfected into human glioma SNB-19 cells using the cationic liposome system, DOTAP (Boehringer Mannheim, Indianapolis, Ind.). The transfected cells were further cultured for 3 weeks in selection medium containing 800 μg/ml of G418 and then individual clones were isolated with cloning rings. Isolated clones were further cultured for 4 weeks in selection medium and were examined for luciferase gene expression by Northern analysis. […] Three representative clones (34, 56, and 60) were further characterized.
The suppression of luciferase gene expression by inhibitors of MAPK pathway in the stable transfectants was determined.

Experiment [5] concerns SNB-19 cells. In words: Suppression of PDBu-mediated mRNA induction by a MAPKK inhibitor, Northern analysis. The format is cell-based, human. The protocol:
as §1
The assay was modified for use in the identification of compounds that can inhibit gene expression. To identify compounds that may affect the growth, migration or invasivity of tumor cells, the assay described below is provided. To activate the quiescent cells, SNB-19 glioma cells are cultured in the presence of 150 nM Phorbol 12, 13-dibutyrate (PDBu, Sigma Chemical Co.) for 24 hr. The cells are then contacted with a test compound that may affect expression of GnT-V, c-ets-1, uPA, MMP-1, or MMP-3. Compounds shown to inhibit expression of any, multiple, or all of the sequences are selected for further study. […]

Another experiment concerns SNB-19 glioma cells. The note with it: data not shown.
For the next experiment, the system named is MEK/MAPK Kinase (MAPKK). The note with it: cited from earlier work.
Experiment [6] relates to p42/p44 ERK/MAPK proteins. The note with it: 50 μM U0126, SNB-19 cells. How it is done: Quiescent SNB-19 cells were plated into fresh growth media and incubated for 0.5, 1, 2, 3, 4, 6, and 8 hr, and the cells were harvested for Northern analysis (FIG. 10A-10C) and Western blot analysis (FIG. 10D).

The structures appear in SMILES notation. Entries after “also recorded” stand apart in the source; their conditions may differ.

`COC[C@H]1OC(=O)c2coc3c2[C@@]1(C)C1=C(C3=O)[C@@H]2CCC(=O)[C@@]2(C)C[C@H]1OC(C)=O` [Wortmannin]: in the experiment on SNB-19 cells [1], the “effect on expression of uPA, GnT-V and c-ets-1 mRNA induced by growth stimulation” value is “no effect”.

Regarding `CCCC(=O)O[C@@H]1[C@@H](C)[C@@]2(O)[C@@H](C=C(CO)C[C@]3(O)C(=O)C(C)=C[C@@H]23)[C@@H]2C(C)(C)[C@]12OC(=O)CCC` [PDBu, Phorbol 12, 13-dibutyrate], in the experiment with SNB-19 cells [2], the “induction of GnT-V, c-ets-1, uPA, MMP-1, and MMP-3 mRNA expression” value is “marked induction; also recorded: induced”.

On to `COc1cccc(-c2cc(=O)c3ccccc3o2)c1N` [PD98059, 2′-amino-3′-methoxyflavone], for which, in experiment [3], the “potency of inhibition of c-Fos protein induction (rank order)” value is 50 μM U0126>1 μM FTI>50 μM PD98059 and the c-Fos protein induction entry is recorded as “weak suppression”. Besides, the “luciferase mRNA expression” value in experiment [4] is given as “slightly suppressed”. Moreover, in experiment [4] (listed as PD98056), the “luciferase mRNA expression” value is recorded as “suppress”. The “growth-stimulated induction of c-fos, c-ets-1, GnT-V, and uPA mRNA expression” value in the experiment with SNB-19 cells [1] (80 μM PD98059, 0.5-8 hr after plating into fresh growth media) is on record as “suppression; also recorded: suppressed”. Also, in the experiment on SNB-19 cells [5] (150 nM PDBu 24 hr, 15 and 80 μM PD98059, 15 μM), the “PDBu-induced GnT-V, c-ets-1, MMP-1, and MMP-3 mRNA induction (b19 also uPA)” value is “completely abolished”. In addition, the “uPA mRNA expression in PDBu-stimulated cells” value in the experiment with SNB-19 cells [5] (150 nM PDBu, PD98059 15 and 80 μM) was “decreased in a dose-dependent manner”.

For `N#CC(=C(/N)Sc1ccccc1N)/C(C#N)=C(\N)Sc1ccccc1N` [U0126], in the experiment on SNB-19 glioma cells, the “adhesion-mediated protein tyrosine phosphorylation” value is “little effect”. Also, in experiment [3], the “potency of inhibition of c-Fos protein induction (rank order)” value is 50 μM U0126>1 μM FTI>50 μM PD98059 and the c-Fos protein induction result is on record as “completely inhibited”. Further, the “luciferase mRNA expression” value in experiment [4] is listed as “greatly suppressed; also recorded: greater inhibition”. In the experiment on MEK/MAPK Kinase (MAPKK), the “potency as MEK/MAPKK inhibitor relative to PD98059” value is 30 times. Besides, the “growth-stimulated induction of GnT-V, uPA and c-ets-1 mRNA expression” value with SNB-19 cells [1] (50 μM U0126, 0.5-8 hr after plating into fresh growth media) is on record as “strongly suppressed; also recorded: suppressed the induction”. In addition, the “phosphorylation of p42/p44 ERK/MAPK” value in experiment [6] is recorded as “completely inhibited”.

Turning to `COc1cc2ncnc(Nc3cccc(Br)c3)c2cc1OC` [PD153035], the “effect on expression of uPA, GnT-V and c-ets-1 mRNA induced by growth stimulation” value in the experiment with SNB-19 cells [1] is on record as “no effect”.

Values taken from US20020142287A1, “High throughput assay to detect inhibitors of the map kinase pathway” (priority 2000, published 2002).
